Measurements published in patent US9458203B2, “Integrin-blocking polypeptides and uses thereof” (priority 2011, dated 2016).
Like-named read-outs stand apart in the source and are kept apart here. Ends that are not written are not given here.

Assays:
[1] = test system: human gastric cancer MGC-803; experiment: heterotransplanted human gastric cancer MGC-803 in nude mice; settings: for final weight: tail vein daily
Text: (§2) Keeping measuring the diameter of the transplanted tumor with a vernier caliper, and randomly dividing the mice into groups when the volume of the tumor reached 100-200 mm^3. Observing the dynamic effect of integrin-blocking polypeptides on inhibiting the growth of the tumor by means of documenting the change of tumor diameters. Measuring the tumor diameter once every other day and recording the body weight of mice simultaneously. Intravenously injecting polypeptides to mice from test groups while administering equal quantity of physiological saline to mice from the negative control group. The total medication period was 14 days. Avastin was adopted to set up a positive control group; it was administered through the tail vein once every three days while all other drugs were administered through the tail vein once a day. Leaving mice for a one-week rest after 14 days' medication, then (21 days after medication) killing the mice, surgically dissecting the tumors and measuring the weight of tumors. The tumor volume (TV) was calculated in accordance with the following formula: TV=½×a×b^2

[2] = test system: human endometrial cancer HHUA; settings: mouse, in vivo
Procedure: (§3) Taking a certain amount of vigorously growing tumor tissue, grinding the tumor tissue under sterile conditions and preparing cell suspension at the concentration of 1×10^7 cells/ml; then hypodermicaly inoculating 0.1 ml of the cell suspension into the right axillary region of nude mice. Keeping measuring the diameter of the transplanted tumor with a vernier caliper, and randomly dividing the mice into groups when the volume of the tumor reached 100-200 mm^3. Observing the dynamic effect of integrin-blocking polypeptides on inhibiting the growth of the tumor by means of documenting the change of tumor diameters. Measuring the tumor diameter once every other day and recording the body weight of mice simultaneously. Intravenously injecting polypeptides to mice from test groups while administering equal quantity of physiological saline to mice from the negative control group. The total medication period was 14 days. Avastin was adopted to set up a positive control group; it was administered through the tail vein once every three days while all other drugs were administered through the tail vein once a day. Leaving mice for a one-week rest after 14 days' medication, then (21 days after medication) killing the mice, surgically dissecting the tumors and measuring the weight of tumors. The tumor volume (TV) was calculated in accordance with the following formula: TV=½×a×b^2
(§4) Taxol used in the positive control group was administered once every 3 days through tail vein injection, while drugs of all other groups were administered on daily basis through tail vein injection.

[3] = test system: human rectal cancer Colo 320; settings: mouse, in vivo
Procedure: as §3, §4

[4] = test system: human breast cancer MDA-MB-231; experiment: heterotransplanted human breast cancer MDA-MB-231 in nude mice; settings: for final weight: tail vein once a day, 14 days
Procedure: as §3
(§5) wherein a, b refer to the length and width of the tumor respectively.
(§6) The relative tumor volume (RTV) can be calculated in accordance with the results of measurement, using the formula: RTV=Vt/V0, wherein V0 refers to the initial tumor volume measured on the date starting medication (namely d0) while Vt the tumor volume obtained through every measurement. The anti-tumor activity was evaluated by relative proliferation rate T/C (%), which was calculated in accordance with the following formula:
(§7) wherein TRTV refers to the RTV of experimental groups; CRTV refers to the RTV of the negative control group.

[5] = test system: human gallbladder cancer GBC-SD; experiment: heterotransplanted human gallbladder cancer GBC-SD in nude mice; settings: for final weight: daily, tail vein injection
Procedure: as §3
(§8) Avastin used in the positive control group was administered once every 2 days through tail vein injection, while drugs of all other groups were administered on daily basis through tail vein injection.

[6] = test system: human thyroid cancer SW-579; assay type: in vivo, nude mice; settings: mouse, in vivo
Procedure: (§9) Taking a certain amount of vigorously growing tumor tissue, grinding the tumor tissue under sterile conditions and preparing cell suspension at the concentration of 1×10^7 cells/ml; then hypodermicaly inoculating 0.1 ml of the cell suspension into the right axillary region of nude mice. Keeping measuring the diameter of the transplanted tumor with a vernier caliper, and randomly dividing the mice into groups when the volume of the tumor reached 100-200 mm^3. […] Measuring the tumor diameter once every other day and recording the body weight of mice simultaneously. Intravenously injecting polypeptides to mice from test groups while administering equal quantity of physiological saline to mice from the negative control group. The total medication period was 14 days. Avastin was adopted to set up a positive control group; it was administered through the tail vein once every three days while all other drugs were administered through the tail vein once a day. Leaving mice for a one-week rest after 14 days' medication, then (21 days after medication) killing the mice, surgically dissecting the tumors and measuring the weight of tumors. The tumor volume (TV) was calculated in accordance with the following formula: TV=½×a×b^2

human renal cancer A498 = assay type: in vivo, nude mice; settings: mouse, in vivo
Procedure: as §9

[7] = test system: human breast cancer MDA-MB-231; settings: mouse, in vivo
Procedure: as §3, §5, §6, §7

[8] = test system: human prostate cancer DU-145; assay type: in vivo, nude mice; settings: mouse, in vivo
Procedure: as §9

[9] = test system: human bladder cancer HT1376; experiment: heterotransplanted human bladder cancer HT1376 in nude mice; assay type: in vivo; settings: for final weight: daily, tail vein injection
Text: (§1) The total medication period was 14 days.

[10] = test system: human gallbladder cancer GBC-SD; settings: mouse, in vivo
Procedure: as §3, §8

melanoma B16F10 = experiment: transplanted melanoma B16F10 in C57BL/6 black mice; settings: mouse, in vivo
Procedure: Hypodermically injecting polypeptides and other drugs into the left axillary region of mice from the experimental groups respectively while administering only equal quantity of physiological saline to the mice from the negative control group. The total medication period was 14 days, during which cyclophosphamide was administered once every other day, taxol once every three days, low-dose polypeptide twice a day and all other drugs once a day.

[11] = test system: human esophageal cancer Ec109; assay type: in vivo, nude mice; settings: mouse, in vivo
Text: as §1

[12] = assay type: in vivo, nude mice; settings: mouse, in vivo
Text: as §1

[13] = test system: human testicular cancer 5637; assay type: in vivo, nude mice; settings: mouse, in vivo
Text: as §1

sarcoma HT-1080 = assay type: in vivo, nude mice; settings: mouse, in vivo
Text: as §1

[14] = test system: human gastric cancer MGC-803; settings: mouse, in vivo
Text: as §2

[15] = test system: human pancreatic cancer SW-1990; experiment: heterotransplanted human pancreatic cancer SW-1990 in nude mice; assay type: in vivo; settings: for final weight: daily, tail vein injection
Text: as §1

human lung cancer H460 = settings: mouse, in vivo
Procedure: as §3, §4

human colon cancer HT-29 = assay type: in vivo, nude mice; settings: mouse, in vivo
Procedure: as §9

human brain tumor SF763 = settings: mouse, in vivo
Procedure: as §3, §4

[16] = test system: human ovarian cancer SK-OV-3; assay type: in vivo, nude mice; settings: mouse, in vivo
Procedure: as §9

[17] = test system: human liver cancer SMMC-7721; settings: mouse, in vivo
Procedure: as §3, §4

[18] = test system: human cervical cancer HeLa; assay type: in vivo, nude mice; settings: mouse, in vivo
Procedure: as §9

[19] = test system: human laryngeal cancer Hep-2; experiment: heterotransplanted human laryngeal cancer Hep-2 in nude mice; assay type: in vivo; settings: for final weight: body weight of nude mice, daily, tail vein injection
Text: as §1

[20] = in contrast with the negative control group

FQPVLHLVALNSPLSGGMRGIRGADFQCFQQARAVGLAGTFRA [polypeptide I]
final weight ([1]; 0.75 mg/kg/time): 22.98 ± 0.60 g
final weight ([1]; 1.5 mg/kg/time): 22.66 ± 0.61 g
final weight ([1]; 3 mg/kg/time): 23.23 ± 0.67 g
body weight of animals, in words [1, 20]: no significant change in body weight
body weight of animals, in words [2]: no significant change in body weight
toxic and side effects, in words [2]: no obvious toxic and side effects
body weight of animals, in words [3]: no significant change in body weight
toxic and side effects, in words [3]: no obvious toxic and side effects
final weight ([3]; 0.75 mg/kg): 23.11 ± 0.61 g
final weight ([3]; 1.5 mg/kg): 22.87 ± 0.57 g
final weight ([3]; 3 mg/kg): 20.99 ± 0.66 g
final weight ([4]; 0.75 mg/kg/time): 22.28 ± 1.75 g
final weight ([4]; 1.5 mg/kg/time): 20.21 ± 1.97 g
final weight ([4]; 3 mg/kg/time): 19.34 ± 1.13 g
body weight of animals, in words [4, 20]: no significant change in body weight
final weight ([5]; 0.75 mg/kg/time): 22.95 ± 0.46 g
final weight ([5]; 1.5 mg/kg/time): 23.04 ± 0.55 g
final weight ([5]; 3 mg/kg/time): 22.89 ± 0.51 g
body weight of animals, in words [5, 20]: no significant change in body weight
body weight of animals, in words [6]: no significant change in body weight
toxic and side effects, in words [6]: no obvious toxic and side effects
body weight of animals, in words (human renal cancer A498): no significant change in body weight
toxic and side effects, in words (human renal cancer A498): no obvious toxic and side effects
toxic and side effects, in words [7]: no obvious toxic and side effects
body weight of animals, in words [8]: no significant change in body weight
toxic and side effects, in words [8]: no obvious toxic and side effects
final weight ([9]; 0.75 mg/kg/time): 23.17 ± 0.58 g
final weight ([9]; 1.5 mg/kg/time): 22.88 ± 0.66 g
final weight ([9]; 3 mg/kg/time): 23.14 ± 0.54 g
body weight of animals, in words [9, 20]: no significant change in body weight
toxic and side effects, in words ([9]; mouse, in vivo): no obvious toxic and side effects
toxic and side effects, in words [10]: no obvious toxic and side effects
body weight of animals, in words (melanoma B16F10): no significant change
toxic and side effects, in words (melanoma B16F10): no significant toxic and side effects
body weight of animals, in words [11]: no significant change in body weight
toxic and side effects, in words [11]: no obvious toxic and side effects
body weight of animals, in words [12]: no significant change in body weight
toxic and side effects, in words [13]: no obvious toxic and side effects
body weight of animals, in words (sarcoma HT-1080): no significant change in body weight
toxic and side effects, in words (sarcoma HT-1080): no obvious toxic and side effects
final weight (sarcoma HT-1080; 0.75 mg/kg): 22.99 ± 0.51 g
final weight (sarcoma HT-1080; 1.5 mg/kg): 23.10 ± 0.64 g
final weight (sarcoma HT-1080; 3 mg/kg): 23.13 ± 0.38 g
toxic and side effects, in words [14]: no obvious toxic and side effects
final weight ([15]; 0.75 mg/kg/time): 23.06 ± 0.64 g
final weight ([15]; 1.5 mg/kg/time): 23.03 ± 0.65 g
final weight ([15]; 3 mg/kg/time): 22.86 ± 0.65 g
body weight of animals, in words [15, 20]: no significant change in body weight
toxic and side effects, in words ([15]; mouse, in vivo): no obvious toxic and side effects
body weight of animals, in words (human lung cancer H460): no significant change in body weight
toxic and side effects, in words (human lung cancer H460): no obvious toxic and side effects
body weight of animals, in words (human colon cancer HT-29): no significant change in body weight
toxic and side effects, in words (human colon cancer HT-29): no obvious toxic and side effects
body weight of animals, in words (human brain tumor SF763): no significant change in body weight
toxic and side effects, in words (human brain tumor SF763): no obvious toxic and side effects
final weight (human brain tumor SF763; 0.75 mg/kg): 22.90 ± 0.69 g
final weight (human brain tumor SF763; 1.5 mg/kg): 22.99 ± 0.62 g
final weight (human brain tumor SF763; 3 mg/kg): 20.94 ± 0.47 g
body weight of animals, in words [16]: no significant change in body weight
toxic and side effects, in words [16]: no obvious toxic and side effects
final weight ([16]; 0.75 mg/kg): 23.09 ± 0.59 g
final weight ([16]; 1.5 mg/kg): 22.96 ± 0.59 g
final weight ([16]; 3 mg/kg): 23.16 ± 0.51 g
body weight of animals, in words [17]: no significant change in body weight
toxic and side effects, in words [17]: no obvious toxic and side effects
body weight of animals, in words [18]: no significant change in body weight
toxic and side effects, in words [18]: no obvious toxic and side effects
final weight ([19]; 0.75 mg/kg/time): 22.88 ± 0.63 g
final weight ([19]; 1.5 mg/kg/time): 23.21 ± 0.62 g
final weight ([19]; 3 mg/kg/time): 22.99 ± 0.62 g
body weight of animals, in words [19, 20]: no significant change in body weight
toxic and side effects, in words ([19]; mouse, in vivo): no obvious toxic and side effects
